Test results reported in ChEMBL document CHEMBL3769397, “A new GLP-1 analogue with prolonged glucose-lowering activity in vivo via backbone-based modification at the N-terminus” (Bioorg Med Chem, 2016).

Columns and labels:
[1] = molecular target: T1, DPP4 (dipeptidyl peptidase 4) (Homo sapiens, UniProt P27487); assay: Drug degradation assessed as recombinant human DPP4-mediated cleavage by measuring compound remaining after 72 hrs by RP-HPLC analysis; assay type: ADME; settings: read-out: Stability
T1 sequence (P27487 whole entry): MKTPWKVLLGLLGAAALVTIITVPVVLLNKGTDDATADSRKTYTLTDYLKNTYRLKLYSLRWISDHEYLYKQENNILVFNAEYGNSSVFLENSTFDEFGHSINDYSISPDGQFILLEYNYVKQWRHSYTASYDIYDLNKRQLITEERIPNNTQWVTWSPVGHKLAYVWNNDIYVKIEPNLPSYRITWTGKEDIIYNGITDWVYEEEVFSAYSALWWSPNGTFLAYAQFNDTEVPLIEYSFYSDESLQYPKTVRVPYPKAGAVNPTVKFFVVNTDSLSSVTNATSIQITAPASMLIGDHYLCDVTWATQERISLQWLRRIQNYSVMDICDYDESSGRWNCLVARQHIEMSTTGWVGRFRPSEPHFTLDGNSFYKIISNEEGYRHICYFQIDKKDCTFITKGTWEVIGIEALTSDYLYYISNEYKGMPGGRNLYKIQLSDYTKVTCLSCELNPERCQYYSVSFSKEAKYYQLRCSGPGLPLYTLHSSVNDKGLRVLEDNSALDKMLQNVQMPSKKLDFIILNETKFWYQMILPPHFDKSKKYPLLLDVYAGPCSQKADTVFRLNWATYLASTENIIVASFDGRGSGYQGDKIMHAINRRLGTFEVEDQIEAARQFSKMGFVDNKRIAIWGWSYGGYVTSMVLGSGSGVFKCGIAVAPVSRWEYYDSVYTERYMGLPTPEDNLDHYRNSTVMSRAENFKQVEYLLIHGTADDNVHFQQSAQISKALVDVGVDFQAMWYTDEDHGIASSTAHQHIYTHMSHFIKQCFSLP

[2] = Retention time of compound over 30 mins by HPLC analysis; assay type: physicochemical; settings: 0.5 h
[3] = molecular target: T1, DPP4 (dipeptidyl peptidase 4); assay: Drug degradation assessed as recombinant human DPP4-mediated cleavage by measuring compound remaining after 96 hrs by RP-HPLC analysis; assay type: ADME; settings: read-out: Stability
[4] = molecular target: T1, DPP4 (dipeptidyl peptidase 4); assay: Drug degradation assessed as recombinant human DPP4-mediated cleavage by measuring compound remaining after 12 hrs by RP-HPLC analysis; assay type: ADME; settings: read-out: Stability
[5] = molecular target: Glucagon-like peptide 1 receptor (Homo sapiens, UniProt P43220); assay: Activation of human GLP1R expressed in HEK293 cells preincubated for 30 mins followed by addition of cAMP-d2 conjugate/cryptate conjugate incubated for 60 mins by fluorescence analysis; assay type: functional, cell-based
Glucagon-like peptide 1 receptor, sequence (P43220 whole entry): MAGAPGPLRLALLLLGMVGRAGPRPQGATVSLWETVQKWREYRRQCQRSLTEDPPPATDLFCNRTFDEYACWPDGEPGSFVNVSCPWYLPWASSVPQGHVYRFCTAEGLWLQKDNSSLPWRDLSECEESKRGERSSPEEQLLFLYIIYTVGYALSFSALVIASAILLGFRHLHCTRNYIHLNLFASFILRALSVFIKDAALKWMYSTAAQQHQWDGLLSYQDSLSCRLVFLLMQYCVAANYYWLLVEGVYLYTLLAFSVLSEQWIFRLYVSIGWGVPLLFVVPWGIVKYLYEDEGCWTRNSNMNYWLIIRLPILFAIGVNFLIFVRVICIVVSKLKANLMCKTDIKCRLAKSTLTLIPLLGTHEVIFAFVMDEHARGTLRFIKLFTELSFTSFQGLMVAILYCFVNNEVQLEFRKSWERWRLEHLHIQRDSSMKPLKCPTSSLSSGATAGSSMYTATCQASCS

[6] = molecular target: T1, DPP4 (dipeptidyl peptidase 4); assay: Drug degradation assessed as recombinant human DPP4-mediated cleavage by measuring compound remaining after 48 hrs by RP-HPLC analysis; assay type: ADME; settings: read-out: Stability
[7] = molecular target: T1, DPP4 (dipeptidyl peptidase 4); assay: Half life of compound assessed as recombinant human DPP4-mediated cleavage by RP-HPLC analysis; assay type: ADME
[8] = molecular target: T1, DPP4 (dipeptidyl peptidase 4); assay: Drug degradation assessed as recombinant human DPP4-mediated cleavage by measuring compound remaining after 24 hrs by RP-HPLC analysis; assay type: ADME; settings: read-out: Stability
[9] = molecular target: T1, DPP4 (dipeptidyl peptidase 4); assay: Drug degradation assessed as recombinant human DPP4-mediated cleavage by measuring compound remaining after 2 hrs by RP-HPLC analysis; assay type: ADME; settings: read-out: Stability
[10] = molecular target: T1, DPP4 (dipeptidyl peptidase 4); assay: Drug degradation assessed as recombinant human DPP4-mediated cleavage by measuring compound remaining after 4 hrs by RP-HPLC analysis; assay type: ADME; settings: read-out: Stability
[11] = molecular target: T1, DPP4 (dipeptidyl peptidase 4); assay: Drug degradation assessed as recombinant human DPP4-mediated cleavage by measuring compound remaining after 1 hr by RP-HPLC analysis; assay type: ADME; settings: read-out: Stability
[12] = molecular target: T1, DPP4 (dipeptidyl peptidase 4); assay: Drug degradation assessed as recombinant human DPP4-mediated cleavage by measuring compound remaining after 8 hrs by RP-HPLC analysis; assay type: ADME; settings: read-out: Stability

For CC[C@H](C)[C@H](NC(=O)[C@H](Cc1ccccc1)NC(=O)[C@H](CCC(=O)O)NC(=O)[C@H](CCCCN)NC(=O)[C@H](C)NC(=O)[C@H](C)NC(=O)[C@H](CCC(N)=O)NC(=O)CNC(=O)[C@H](CCC(=O)O)NC(=O)[C@H](CC(C)C)NC(=O)[C@H](Cc1ccc(O)cc1)NC(=O)[C@H](CO)NC(=O)[C@H](CO)NC(=O)[C@@H](NC(=O)[C@H](CC(=O)O)NC(=O)[C@H](CO)NC(=O)[C@@H](NC(=O)[C@H](Cc1ccccc1)NC(=O)[C@@H](NC(=O)CNC(=O)[C@H](CCC(=O)O)NC(=O)C1(NC(=O)[C@@H](N)Cc2cnc[nH]2)CC1)[C@@H](C)O)[C@@H](C)O)C(C)C)C(=O)N[C@@H](C)C(=O)N[C@@H](Cc1c[nH]c2ccccc12)C(=O)N[C@@H](CC(C)C)C(=O)N[C@H](C(=O)N[C@@H](CCCCN)C(=O)NCC(=O)N[C@@H](CCCNC(=N)N)C(N)=O)C(C)C, which remaining at 72 h [1] is on record?
The remaining at 72 h was 100%.

And the Retention_time [2]?
The Retention_time was 13.842 min.

What about the remaining at 96 h [3] of the same compound?
The remaining at 96 h was 100%.

What about the remaining at 12 h [4] of the same compound?
The remaining at 12 h was 100%.

What about the EC50 ([5]; hek293) of the same compound?
Its EC50 is 0.0284 nM.

And the remaining at 48 h [6]?
Its remaining at 48 h is 100%.

What about the half-life [7] of the same compound?
The half-life was greater than 96 h.

And the remaining at 24 h [8]?
The remaining at 24 h was 100%.

For CC[C@H](C)[C@H](NC(=O)[C@H](Cc1ccccc1)NC(=O)[C@H](CCC(=O)O)NC(=O)[C@H](CCCCN)NC(=O)[C@H](C)NC(=O)[C@H](C)NC(=O)[C@H](CCC(N)=O)NC(=O)CNC(=O)[C@H](CCC(=O)O)NC(=O)[C@H](CC(C)C)NC(=O)[C@H](Cc1ccc(O)cc1)NC(=O)[C@H](CO)NC(=O)[C@H](CO)NC(=O)[C@@H](NC(=O)[C@H](CC(=O)O)NC(=O)[C@H](CO)NC(=O)[C@@H](NC(=O)[C@H](Cc1ccccc1)NC(=O)[C@@H](NC(=O)CNC(=O)[C@H](CCC(=O)O)NC(=O)[C@H](C)CNC(=O)[C@@H](N)Cc1cnc[nH]1)[C@@H](C)O)[C@@H](C)O)C(C)C)C(=O)N[C@@H](C)C(=O)N[C@@H](Cc1c[nH]c2ccccc12)C(=O)N[C@@H](CC(C)C)C(=O)N[C@H](C(=O)N[C@@H](CCCCN)C(=O)NCC(=O)N[C@@H](CCCNC(=N)N)C(N)=O)C(C)C, which remaining at 72 h [1] is on record?
Its remaining at 72 h is 100%.

And the Retention_time [2]?
The Retention_time was 14.005 min.

What about the remaining at 96 h [3] of the same compound?
Its remaining at 96 h is 100%.

What about the remaining at 12 h [4] of the same compound?
The remaining at 12 h was 100%.

And the remaining at 48 h [6]?
The remaining at 48 h was 100%.

What about the half-life [7] of the same compound?
The half-life was greater than 96 h.

And the remaining at 24 h [8]?
Its remaining at 24 h is 100%.

With CC[C@H](C)[C@H](NC(=O)[C@H](Cc1ccccc1)NC(=O)[C@H](CCC(=O)O)NC(=O)[C@H](CCCCN)NC(=O)[C@H](C)NC(=O)[C@H](C)NC(=O)[C@H](CCC(N)=O)NC(=O)CNC(=O)[C@H](CCC(=O)O)NC(=O)[C@H](CC(C)C)NC(=O)[C@H](Cc1ccc(O)cc1)NC(=O)[C@H](CO)NC(=O)[C@H](CO)NC(=O)[C@@H](NC(=O)[C@H](CC(=O)O)NC(=O)[C@H](CO)NC(=O)[C@@H](NC(=O)[C@H](Cc1ccccc1)NC(=O)[C@@H](NC(=O)CCNC(=O)[C@H](CCC(=O)O)NC(=O)[C@H](C)NC(=O)[C@@H](N)Cc1cnc[nH]1)[C@@H](C)O)[C@@H](C)O)C(C)C)C(=O)N[C@@H](C)C(=O)N[C@@H](Cc1c[nH]c2ccccc12)C(=O)N[C@@H](CC(C)C)C(=O)N[C@H](C(=O)N[C@@H](CCCCN)C(=O)NCC(=O)N[C@@H](CCCNC(=N)N)C(N)=O)C(C)C as the compound, how does the remaining at 2 h [9] read?
The remaining at 2 h was 57.5%.

What about the Retention_time [2] of the same compound?
The Retention_time was 14.566 min.

And the remaining at 12 h [4]?
Its remaining at 12 h is 7.5%.

What about the remaining at 4 h [10] of the same compound?
The remaining at 4 h was 34.8%.

And the EC50 [5]?
The EC50 was 0.0636 nM.

And the half-life [7]?
The half-life was 2.39 h.

And the remaining at 1 h [11]?
The remaining at 1 h was 74.8%.

And the remaining at 8 h [12]?
The remaining at 8 h was 14.9%.

With CC[C@H](C)[C@H](NC(=O)[C@H](Cc1ccccc1)NC(=O)[C@H](CCC(=O)O)NC(=O)[C@H](CCCCN)NC(=O)[C@H](C)NC(=O)[C@H](C)NC(=O)[C@H](CCC(N)=O)NC(=O)CNC(=O)[C@H](CCC(=O)O)NC(=O)[C@H](CC(C)C)NC(=O)[C@H](Cc1ccc(O)cc1)NC(=O)[C@H](CO)NC(=O)[C@H](CO)NC(=O)[C@@H](NC(=O)[C@H](CC(=O)O)NC(=O)[C@H](CO)NC(=O)[C@@H](NC(=O)[C@H](Cc1ccccc1)NC(=O)[C@@H](NC(=O)CNC(=O)[C@H](CCC(=O)O)NC(=O)C[C@H](C)NC(=O)[C@@H](N)Cc1cnc[nH]1)[C@@H](C)O)[C@@H](C)O)C(C)C)C(=O)N[C@@H](C)C(=O)N[C@@H](Cc1c[nH]c2ccccc12)C(=O)N[C@@H](CC(C)C)C(=O)N[C@H](C(=O)N[C@@H](CCCCN)C(=O)NCC(=O)N[C@@H](CCCNC(=N)N)C(=O)O)C(C)C as the compound, how does the remaining at 2 h [9] read?
Its remaining at 2 h is 100%.

And the remaining at 72 h [1]?
Its remaining at 72 h is 100%.

And the Retention_time [2]?
Its Retention_time is 14.536 min.

What about the remaining at 96 h [3] of the same compound?
Its remaining at 96 h is 100%.

What about the remaining at 12 h [4] of the same compound?
Its remaining at 12 h is 100%.

And the remaining at 4 h [10]?
Its remaining at 4 h is 100%.

And the remaining at 48 h [6]?
The remaining at 48 h was 100%.

And the half-life [7]?
Its half-life is greater than 96 h.

And the remaining at 24 h [8]?
Its remaining at 24 h is 100%.

What about the remaining at 1 h [11] of the same compound?
The remaining at 1 h was 100%.

What about the remaining at 8 h [12] of the same compound?
The remaining at 8 h was 100%.

With CC[C@H](C)[C@H](NC(=O)[C@H](Cc1ccccc1)NC(=O)[C@H](CCC(=O)O)NC(=O)[C@H](CCCCN)NC(=O)[C@H](C)NC(=O)[C@H](C)NC(=O)[C@H](CCC(N)=O)NC(=O)CNC(=O)[C@H](CCC(=O)O)NC(=O)[C@H](CC(C)C)NC(=O)[C@H](Cc1ccc(O)cc1)NC(=O)[C@H](CO)NC(=O)[C@H](CO)NC(=O)[C@@H](NC(=O)[C@H](CC(=O)O)NC(=O)[C@H](CO)NC(=O)[C@@H](NC(=O)[C@H](Cc1ccccc1)NC(=O)[C@@H](NC(=O)CNC(=O)C[C@@H](CCC(=O)O)NC(=O)[C@H](C)NC(=O)[C@@H](N)Cc1cnc[nH]1)[C@@H](C)O)[C@@H](C)O)C(C)C)C(=O)N[C@@H](C)C(=O)N[C@@H](Cc1c[nH]c2ccccc12)C(=O)N[C@@H](CC(C)C)C(=O)N[C@H](C(=O)N[C@@H](CCCCN)C(=O)NCC(=O)N[C@@H](CCCNC(=N)N)C(N)=O)C(C)C as the compound, how does the remaining at 72 h [1] read?
The remaining at 72 h was 54%.

And the Retention_time [2]?
The Retention_time was 14.669 min.

What about the remaining at 96 h [3] of the same compound?
Its remaining at 96 h is 41.7%.

And the remaining at 12 h [4]?
Its remaining at 12 h is 82.9%.

And the remaining at 48 h [6]?
Its remaining at 48 h is 61.3%.

What about the half-life [7] of the same compound?
The half-life was 96 h.

And the remaining at 24 h [8]?
The remaining at 24 h was 72.7%.
